According to ChEMBL document CHEMBL3045519, “Selective Herbicidal Activity of 3, 5-Dichloropyridyloxy-phenoxypropionamidoxyacetic Acid Derivatives between Wheat and Wild Oat” (J Pestic Sci, 1996):
Active and inactive are the calls of the source. No cut-off for these calls is given here.

Assays:
[1] = test system: Triticum aestivum; assay: Phytotoxicity against Triticum aestivum (wheat) under greenhouse conditions at 2.5 g/a at 1.5-leaf stage measured after 3 weeks by pot test; format: organism-based; conditions: in vivo, 504 h
[2] = test system: Triticum aestivum; assay: Phytotoxicity against Triticum aestivum (wheat) under greenhouse conditions at 1.3 g/a at 1.5-leaf stage measured after 3 weeks by pot test; format: organism-based; conditions: in vivo, 504 h
[3] = test system: Triticum aestivum; assay: Phytotoxicity against Triticum aestivum (wheat) under greenhouse conditions at 0.6 g/a at 1.5-leaf stage measured after 3 weeks by pot test; format: organism-based; conditions: in vivo, 504 h
[4] = test system: Triticum aestivum; assay: Phytotoxicity against Triticum aestivum (wheat) under greenhouse conditions at 0.3 g/a at 1.5-leaf stage measured after 3 weeks by pot test; format: organism-based; conditions: in vivo, 504 h
[5] = test system: Avena fatua; assay: Post-emergence herbicidal activity against Avena fatua under greenhouse conditions at 0.3 g/a at 1.5-leaf stage measured after 3 weeks by pot test; format: functional, organism-based
[6] = test system: Avena fatua; assay: Post-emergence herbicidal activity against Avena fatua under greenhouse conditions at 2.5 g/a at 1.5-leaf stage measured after 3 weeks by pot test; format: functional, organism-based
[7] = test system: Avena fatua; assay: Post-emergence herbicidal activity against Avena fatua under greenhouse conditions at 1.3 g/a at 1.5-leaf stage measured after 3 weeks by pot test; format: functional, organism-based
[8] = test system: Avena fatua; assay: Post-emergence herbicidal activity against Avena fatua under greenhouse conditions at 0.6 g/a at 1.5-leaf stage measured after 3 weeks by pot test; format: functional, organism-based
[9] = test system: Triticum aestivum; assay: Phytotoxicity against Triticum aestivum (wheat) under greenhouse conditions at 40 g/a at 1.5-leaf stage measured after 3 weeks by pot test; format: organism-based; conditions: in vivo, 504 h
[10] = test system: Avena fatua; assay: Post-emergence herbicidal activity against Avena fatua under greenhouse conditions at 40 g/a at 1.5-leaf stage measured after 3 weeks by pot test; format: functional, organism-based
[11] = test system: Triticum aestivum; assay: Phytotoxicity against Triticum aestivum (wheat) under greenhouse conditions at 5 g/a at 1.5-leaf stage measured after 3 weeks by pot test; format: organism-based; conditions: in vivo, 504 h
[12] = test system: Triticum aestivum; assay: Phytotoxicity against Triticum aestivum (wheat) under greenhouse conditions at 10 g/a at 1.5-leaf stage measured after 3 weeks by pot test; format: organism-based; conditions: in vivo, 504 h
[13] = test system: Avena fatua; assay: Post-emergence herbicidal activity against Avena fatua under greenhouse conditions at 10 g/a at 1.5-leaf stage measured after 3 weeks by pot test; format: functional, organism-based
[14] = test system: Avena fatua; assay: Post-emergence herbicidal activity against Avena fatua under greenhouse conditions at 5 g/a at 1.5-leaf stage measured after 3 weeks by pot test; format: functional, organism-based

SMILES | Activity [1] | Activity [2] | Activity [3] | Activity [4] | Activity [5] | Activity [6] | Activity [7] | Activity [8] | Activity [9] | Activity [10] | Activity [11] | Activity [12] | Activity [13] | Activity [14]
CC(Oc1ccc(Oc2ncc(Cl)cc2Cl)cc1)C(N)=O (stereo not given) | Non-toxic | Non-toxic | Non-toxic | Non-toxic | inactive | Active | Active | Active | – | – | – | – | – | –
CCOC(=O)CNC(=O)C(C)Oc1ccc(Oc2ncc(Cl)cc2Cl)cc1 (stereo not given) | Toxic | Non-toxic | Non-toxic | Non-toxic | Active | Active | Active | Active | – | – | – | – | – | –
COC(=O)C(C)Oc1ccc(Oc2ncc(Cl)cc2Cl)cc1 (stereo not given) | Toxic | Toxic | Toxic | Toxic | Active | Active | Active | Active | – | – | – | – | – | –
CC(Oc1ccc(Oc2ncc(Cl)cc2Cl)cc1)C(=O)NN (stereo not given) | Non-toxic | Non-toxic | Non-toxic | Non-toxic | inactive | inactive | inactive | inactive | – | – | – | – | – | –
CC(Oc1ccc(Oc2ncc(Cl)cc2Cl)cc1)C(=O)NCC(N)=O (stereo not given) | Toxic | Non-toxic | Non-toxic | Non-toxic | Active | Active | Active | Active | – | – | – | – | – | –
CC(Oc1ccc(Oc2ncc(Cl)cc2Cl)cc1)C(=O)N(C)OCC(=O)O (stereo not given) | Non-toxic | Non-toxic | Non-toxic | Non-toxic | inactive | Active | Active | inactive | – | – | – | – | – | –
CCCCOC(=O)CNC(=O)C(C)Oc1ccc(Oc2ncc(Cl)cc2Cl)cc1 (stereo not given) | Non-toxic | Non-toxic | Non-toxic | Non-toxic | Active | Active | Active | Active | – | – | – | – | – | –
CC(Oc1ccc(Oc2ccc(Cl)cc2Cl)cc1)C(=O)NOCC(=O)O (stereo not given) | – | – | – | – | – | – | – | – | Non-toxic | inactive | – | – | – | –
CC(Oc1ccc(Oc2ncc(C(F)(F)F)cc2Cl)cc1)C(=O)NOCC(=O)O (stereo not given) | Toxic | Toxic | Toxic | Toxic | Active | Active | Active | Active | – | – | – | – | – | –
O=C(O)CONC(=O)COc1ccc(Oc2ncc(Cl)cc2Cl)cc1 | Non-toxic | Non-toxic | Non-toxic | Non-toxic | inactive | inactive | inactive | inactive | – | – | – | – | – | –
CC(Oc1ccc(Oc2ccc(C(F)(F)F)cn2)cc1)C(=O)NOCC(=O)O (stereo not given) | Toxic | Toxic | Toxic | Toxic | inactive | Active | Active | Active | – | – | – | – | – | –
CC(Oc1ccc(Oc2ccc(Cl)cc2Cl)cc1)C(=O)O (stereo not given) [DICLOFOP] | Non-toxic | Non-toxic | – | – | – | Active | Active | – | – | – | Non-toxic | Non-toxic | Active | Active
CNC(=O)CNC(=O)C(C)Oc1ccc(Oc2ncc(Cl)cc2Cl)cc1 (stereo not given) | Non-toxic | Non-toxic | Non-toxic | Non-toxic | Active | Active | Active | Active | – | – | – | – | – | –
CC(Oc1ccc(Oc2ncc(C(F)(F)F)cc2Cl)cc1)C(=O)O (stereo not given) [HALOXYFOP] | Toxic | Toxic | Toxic | Toxic | Active | Active | Active | Active | – | – | – | – | – | –
CC(Oc1ccc(Oc2cnc3cc(Cl)ccc3n2)cc1)C(=O)O (stereo not given) [QUIZALOFOP] | Toxic | Toxic | Toxic | Toxic | Active | Active | Active | Active | – | – | – | – | – | –
CCCOC(=O)CNC(=O)C(C)Oc1ccc(Oc2ncc(Cl)cc2Cl)cc1 (stereo not given) | Non-toxic | Non-toxic | Non-toxic | Non-toxic | Active | Active | Active | Active | – | – | – | – | – | –
CC(Oc1ccc(Oc2ncc(Cl)cc2Cl)cc1)C(=O)N(C)C (stereo not given) | – | – | – | – | – | – | – | – | Non-toxic | inactive | – | – | – | –
CCOC(=O)C(C)Oc1ccc(Oc2ncc(Cl)cc2Cl)cc1 (stereo not given) | Toxic | Toxic | Toxic | Toxic | Active | Active | Active | Active | – | – | – | – | – | –
CONC(=O)C(C)Oc1ccc(Oc2ncc(Cl)cc2Cl)cc1 (stereo not given) | Toxic | Toxic | Toxic | Non-toxic | Active | Active | Active | Active | – | – | – | – | – | –
CNC(=O)C(C)Oc1ccc(Oc2ncc(Cl)cc2Cl)cc1 (stereo not given) | Non-toxic | Non-toxic | Non-toxic | Non-toxic | inactive | inactive | inactive | inactive | – | – | – | – | – | –
CC(Oc1ccc(Oc2ncc(Cl)cc2Cl)cc1)C(=O)NOCC(=O)O (stereo not given) | Non-toxic | Non-toxic | Non-toxic | Non-toxic | Active | Active | inactive | Active | – | – | – | – | – | –
COC(=O)CNC(=O)C(C)Oc1ccc(Oc2ncc(Cl)cc2Cl)cc1 (stereo not given) | Non-toxic | Non-toxic | Non-toxic | Non-toxic | Active | Active | Active | Active | – | – | – | – | – | –
CC(Oc1ccc(Oc2cnc3cc(Cl)ccc3n2)cc1)C(=O)NOCC(=O)O (stereo not given) | Toxic | Toxic | Toxic | Toxic | Active | Active | Active | Active | – | – | – | – | – | –
CC(Oc1ccc(Oc2ncc(Cl)cc2Cl)cc1)C(=O)NCCC(=O)O (stereo not given) | Non-toxic | Non-toxic | Non-toxic | Non-toxic | inactive | Active | Active | inactive | – | – | – | – | – | –
CC(Oc1ccc(Oc2ncc(Cl)cc2Cl)cc1)C(=O)NO (stereo not given) | Non-toxic | Non-toxic | Non-toxic | Non-toxic | inactive | Active | Active | Active | – | – | – | – | – | –
CC(Oc1ccc(Oc2ccc(C(F)(F)F)cn2)cc1)C(=O)O (stereo not given) [FLUAZIFOP] | Toxic | Toxic | Toxic | Toxic | Active | Active | Active | Active | – | – | – | – | – | –
CCCCNC(=O)CNC(=O)C(C)Oc1ccc(Oc2ncc(Cl)cc2Cl)cc1 (stereo not given) | Toxic | Non-toxic | Non-toxic | Non-toxic | Active | Active | Active | Active | – | – | – | – | – | –
CC(Oc1ccc(Oc2ncc(Cl)cc2Cl)cc1)C(=O)O (stereo not given) [PYRIPHENOP] | Toxic | Toxic | Toxic | Non-toxic | Active | Active | Active | Active | – | – | – | – | – | –
CCCNC(=O)CNC(=O)C(C)Oc1ccc(Oc2ncc(Cl)cc2Cl)cc1 (stereo not given) | Toxic | Non-toxic | Non-toxic | Non-toxic | inactive | Active | Active | Active | – | – | – | – | – | –
